According to ChEMBL document CHEMBL3045726, “Fungicidal Activity of Pyrazolylpyrimidines” (1990):
In brackets after ≈: the same amount, converted by molar mass.

Legend:
Assay type in all cases: functional
Pyricularia oryzae [1] = experiment: Fungicidal activity against Magnaporthe oryzae by agar dilution method
Pyricularia oryzae [2] = experiment: Fungicidal activity against Magnaporthe oryzae in rice seedlings assessed as control of rice blast at 250 ppm by curative foliar treatment
Nakataea oryzae = experiment: Fungicidal activity against Magnaporthe salvinii by agar dilution method
Podosphaera fuliginea [3] = experiment: Fungicidal activity against Podosphaera fuliginea in cucumber assessed as control of cucumber powdery mildew at 125 ppm measured after 7 days of inoculation
Pyricularia oryzae [4] = experiment: Fungicidal activity against Magnaporthe oryzae in rice seedlings assessed as control of rice blast at 500 ppm by curative foliar treatment
Pyricularia oryzae [5] = experiment: Fungicidal activity against Magnaporthe oryzae in rice seedlings assessed as control of rice blast at 500 ppm by preventive foliar treatment
Podosphaera fuliginea [6] = experiment: Fungicidal activity against Podosphaera fuliginea in cucumber assessed as control of cucumber powdery mildew at 62.5 ppm measured after 10 days of inoculation
Podosphaera fuliginea [7] = experiment: Fungicidal activity against Podosphaera fuliginea in cucumber assessed as control of cucumber powdery mildew at 62.5 ppm measured after 7 days of inoculation
Podosphaera fuliginea [8] = experiment: Fungicidal activity against Podosphaera fuliginea in cucumber assessed as control of cucumber powdery mildew at 125 ppm measured after 10 days of inoculation

| SMILES | MIC (Pyricularia oryzae [1]) [mg/L] | Activity (Pyricularia oryzae [2]) [%] | MIC (Nakataea oryzae) [mg/L] | Activity (Podosphaera fuliginea [3]) [%] | Activity (Pyricularia oryzae [4]) [%] | Activity (Pyricularia oryzae [5]) [%] | Activity (Podosphaera fuliginea [6]) [%] | Activity (Podosphaera fuliginea [7]) [%] | Activity (Podosphaera fuliginea [8]) [%] |
| --- | --- | --- | --- | --- | --- | --- | --- | --- | --- |
| Cc1cc(O)nc(-n2nc(C)cc2C)n1 | 12.5 (≈ 61.2 µM) | 69 | – | – | – | – | – | – | – |
| Cc1cc(C)n(-c2nc(C)c(C)c(O)n2)n1 | 12.5 (≈ 57.3 µM) | 0 | 100 (≈ 458 µM) | – | – | – | – | – | – |
| CCCCc1c(C)nc(-n2nc(C)cc2C)nc1O | 6.25 (≈ 24 µM) | – | 0.1 (≈ 0.384 µM) | 100 | 99 | 48 | 100 | 100 | 100 |
| Cc1cc(C)n(-c2nc(C)c(CC(C)C)c(O)n2)n1 | 6.25 (≈ 24 µM) | – | 0.78 (≈ 3 µM) | 100 | 98 | 93 | 99.4 | 100 | 100 |
| Cc1cc(C)n(-c2nc(O)c3c(n2)CCC3)n1 | 6.25 (≈ 27.1 µM) | 15 | 6.25 (≈ 27.1 µM) | – | – | 13 | – | – | – |
| Cc1cc(C)n(-c2nc(O)c3c(n2)CCCC3)n1 | 3.12 (≈ 12.8 µM) | 0 | – | – | – | 0 | – | – | – |
